Common to all, as to format: cell-based
Data set [1] deals with HepG2 (liver cancer) cells. Kind of data set: MTT cancer cell viability assay, HepG2. Conditions: HepG2, 48 h. The method, then: (§1) A possible therapeutic application of GLUT3 inhibitors is in oncology, especially for cancers in which GLUT3 is a poor prognosis marker. We tested the effect of GLUT3 inhibitors on the cell viability of several different cancer lines: myeloid leukemia (HL60 and U937), lung cancer (A549), colorectal adenocarcinoma (Caco-2), breast cancer (MCF7), hepatocellular carcinoma (HepG2), and choriocarcinoma (BeWo) cells. GLUT3 inhibitors, at five different concentrations, ranging from 2 to 100 µM, were incubated with cancer cells for 48 h. Then, cell viability was assessed with the MTT assay. […] G3iC and G3iD also affected the leukemia cell lines but at double the concentrations of G3iB and G3iE. […] G3iB had some cytotoxic activity (CC50 < 50 µM) against the highest number of cancer cell lines (HL60, U937, A549, HepG2, and MCF7).
(§2) Cancer cell viability in the presence of GLUT3 inhibitors was assayed using the MTT Cell Viability Kit (Biotium Inc, Freemont, CA) according to manufacturer’s instructions. Cancer cells were grown in the corresponding medium, at 37 °C and 5% CO2 in a humidified incubator. The media (Gibco) for leukemia cells (HL60 and U937), A549, MCF7, BeWo, and HepG2 cells were RPMI 1640, Ham’s F-12K, DMEM:F-12, Ham’s F-12K, and EMEM, respectively, all supplemented with 10% (v/v) fetal bovine serum (HyClone). Caco-2 cells were grown in EMEM supplemented with 20% (v/v) fetal bovine serum. Cells were detached from the culture flasks with Accutase (Innovative Cell Technologies, Inc., San Diego, CA) according to manufacturer’s instructions. Cells were seeded in 96-well plates, at a density of ~ 30,000 cells/well (in 100 µl fresh media) and incubated with varying concentrations of GLUT3 inhibitors for 48 h, at 37 °C and 5% CO2 in a humidified incubator. The inhibitors were dissolved in DMSO, at 100× the final concentration, so that 1 µl of the stock inhibitor concentration was added per well, making the final DMSO concentration 1% (v/v). Therefore, controls for 100% cell viability were cells with 1% (v/v) DMSO without the inhibitors. Controls for 0% cell viability were cells treated with 0.3% (v/v) Tween 20. For MTT assay, 10 µl of MTT reagent was added in each well followed by 3–4 h incubation at 37 °C and 5% CO2 in a humidified incubator. After thoroughly mixing in 200 µl DMSO in each well, the plates were put into a plate reader (BioTek Synergy H1), and the absorbances at 570 nm and 630 nm were measured with Gen5 program (BioTek Inc.). The experimental values represent Abs570 nm-Abs630 nm with each inhibitor condition and control being the average of three wells.
(§3) Supplementary Figure S8. Effect of GLUT3 inhibitors on the viability of various cancer cell lines. Cell viability was determined by MTT assay in A549 (lung cancer), BeWo (choriocarcinoma), Caco-2 (colon cancer), HepG2 (liver cancer), HL-60 (leukemia), MCF7 (breast cancer), and U937 (histiocytic lymphoma) cell lines. GLUT3 inhibitors at concentrations of 2, 5, 10, 20, 50, and 100 µM were incubated with cells in 96-well plates for 48 hours before the addition of the MTT reagent.

A further data set relates to A549 (lung cancer) cells. Kind of data set: MTT cancer cell viability assay, A549. Conditions: A549, 48 h. The procedure:
as §1, §2, §3

The next data set deals with HL60 leukemia cells. Kind of data set: MTT cancer cell viability assay, HL60. Conditions: HL60, 48 h. The method, then: as §1, §2, §3
The test system of the next data set is U937 leukemia cells. Kind of data set: MTT cancer cell viability assay, U937. As to conditions: U937, 48 h. The procedure:
as §1, §2, §3

Broadly, the CC50 is the concentration giving 50% cytotoxicity.

Take `COc1ccccc1-n1c(/C=C/c2ccc(O)cc2)nc2ccc(Br)cc2c1=O` [G3iB, 6-bromo-2-[(E)-2-(4-hydroxyphenyl)ethenyl]-3-(2-methoxyphenyl)quinazolin-4(3H)-one]: the CC50 was 39.3 ± 4 µM in data set [1] and below 50 µM in data set [1] (Homo sapiens).

With `O=C(Nc1cccc(Cl)c1)c1cccc(NC(=O)c2cccc([N+](=O)[O-])c2)c1` [G3iE, N-{3-[(3-chloroanilino)carbonyl]phenyl}-3-nitrobenzamide], the CC50 with A549 (lung cancer) cells is above 50 µM; in the data set on A549 (lung cancer) cells (Homo sapiens), around 33 µM; in data set [1] (Homo sapiens), above 100 µM; with HL60 leukemia cells, 15.7 ± 0.8 µM; with HL60 leukemia cells (Homo sapiens, HL-60, 48 h) it was below 20 µM; in the data set on U937 leukemia cells (Homo sapiens, U-937, 48 h), below 20 µM. The CC50 with U937 leukemia cells was around 18 µM.

As to `Cc1ccccc1CN(Cc1nnc(C(C)(C)C)o1)c1ccc2nc(O)[nH]c2c1` [G3iF], the CC50 in the data set on A549 (lung cancer) cells (Homo sapiens) was above 100 µM; in data set [1] (Homo sapiens), above 100 µM; with HL60 leukemia cells (Homo sapiens, HL-60, 48 h), above 50 µM; in the data set with U937 leukemia cells (Homo sapiens, U-937, 48 h), above 50 µM.

With `Cc1cccnc1OC1CCN(c2cc(N3CCCC3CO)ncn2)CC1` (centres unmarked) [G3iC], the CC50 is 21.6 ± 2.5 µM in the data set on A549 (lung cancer) cells; around 22 µM with A549 (lung cancer) cells (Homo sapiens); above 100 µM in data set [1] (Homo sapiens); 31.1 ± 3.8 µM with HL60 leukemia cells (Homo sapiens, HL-60, 48 h); above 50 µM with U937 leukemia cells (Homo sapiens, U-937, 48 h).

Regarding `Cc1cc(NC(=O)CCC2Cc3ccccc3NC2=O)nc(-c2ccccc2)n1` (centres unmarked) [G3iD], the CC50 with A549 (lung cancer) cells (Homo sapiens) was 32.5 ± 14.2 µM; in data set [1] (Homo sapiens), above 100 µM; in the data set on HL60 leukemia cells (Homo sapiens, HL-60, 48 h) it was 28.7 ± 2.1 µM; in the data set on U937 leukemia cells (Homo sapiens, U-937, 48 h), above 50 µM.

As for `CC(=O)Nc1ccc(S(=O)(=O)Nc2ccc(Nc3cc(N(C)C)nc(C)n3)cc2)cc1` [G3iA, N-(4-{[(4-{[6-(dimethylamino)-2-methylpyrimidin-4-yl]amino}phenyl)amino]sulfonyl}phenyl)acetamide], the CC50 with A549 (lung cancer) cells (Homo sapiens) was above 100 µM; in data set [1] (Homo sapiens), above 100 µM; in the data set with HL60 leukemia cells (Homo sapiens, HL-60, 48 h), above 100 µM; in the data set on U937 leukemia cells (Homo sapiens, U-937, 48 h), above 100 µM.

The record behind these values is publication PMC8791944, “GLUT3 inhibitor discovery through in silico ligand screening and in vivo validation in eukaryotic expression systems” (Scientific Reports, 2022).
